Measurements as given in BigSolDB 2.1.

O=[N+]([O-])c1cccc2cccc([N+](=O)[O-])c12
solubility (mole fraction)
Settings	in acetone	in acetonitrile	in chloroform	in ethanol	in ethyl acetate	in isopropanol	in methanol	in n-butanol	in toluene
273.15 K	0.0103	0.00295	0.00311	0.000242	0.00414	8.97e-05	0.000293	0.000155	0.00119
275.65 K	0.0113	0.00331	0.0035	0.000267	0.00446	0.000103	0.000327	0.000178	0.00125
278.15 K	0.0119	0.0039	0.00382	0.000294	0.00471	0.000126	0.000356	0.00021	0.00138
280.65 K	0.013	0.00465	0.0042	0.000323	0.00522	0.000146	0.000398	0.000237	0.00157
283.15 K	0.014	0.00528	0.00473	0.000351	0.00551	0.000173	0.000429	0.000272	0.00171
285.65 K	0.0152	0.00597	0.00508	0.000385	0.00607	0.000198	0.000485	0.000314	0.00188
288.15 K	0.0163	0.00661	0.00561	0.000427	0.00659	0.000224	0.000536	0.000356	0.00205
291.15 K	0.0177	0.00761	0.00601	0.000484	0.0072	0.000265	0.000599	0.000411	0.00235
293.15 K	0.0189	0.00821	–	0.000529	0.00765	0.000296	0.000641	0.000449	0.00255
295.65 K	0.0205	0.00921	0.00732	0.000584	0.00822	0.000334	0.000696	0.000504	0.0028
298.15 K	0.0223	0.0102	0.00787	0.000646	–	0.000382	0.000758	–	0.00309
300.65 K	0.0243	0.0112	0.0084	0.00071	0.00947	0.00043	0.000821	0.000623	0.00344
303.15 K	0.0261	0.012	0.00923	0.000789	0.0102	0.000482	0.000891	0.00069	0.00382
305.65 K	0.028	0.013	0.00983	0.000878	0.011	0.000536	0.000971	0.000759	0.00427
308.15 K	0.0306	0.014	0.0107	0.000994	0.0119	0.000605	0.00106	0.000832	0.00468
